# Measurements published in patent US7008931B2, “Anti-inflammatory and healing medicine based on laminarin sulphate” (Laboratoires GOEMAR S.A., priority 2000, dated 2006).
# Legend:
# [1] = test system: edema of the ear of the mouse induced with croton oil; test: edema of the ear of the mouse induced with croton oil; format: in vivo; conditions: for equipotent amount per ear for inhibition of inflammation: topical, with 70 μg croton oil, 4 hours
# Method: The topic activity which inhibits inflammation and which is presented by laminarin sulphate, has been tested in the model constituted by the edema of the ear of the mouse induced with croton oil. The control was indomethacin. The tested animals were male mice of the type Swiss CD-1 whose weight was 20 to 25 g. Three groups of tests were carried out on three groups of animals. The first group is a negative control group wherein only the pro-inflammatory agent consisting of croton oil was used. The second group is a positive control group and comprises the use of croton oil and of indomethacin (200 nMol/ear which corresponds to 71.56 μg/ear). The third group relates to the use of laminarin sulphate and comprises the use of 70 μg of croton oil and of increasing amounts of laminarin sulphate (100, 250, 500, 750 and 1000 μg/ear).
# In the case of the control groups, of the group of reference and of the group comprising the use of the different concentrations of laminarin sulphate, 10 mice were used each time. […] On each ear (surface of about 1 cm^2) 70 μg of croton oil were applied at the same time as indomethacin or laminarin sulphate or dexamethasone. Four hours later, samples having a diameter of 7 mm were cut up and weighed.
# For the statistical exploitation an analysis of the variance (ANOVA) as well as the Scheffe test were carried out.
# extrinsic coagulation = test: duration of the prothrombin coagulation test; format: biochemical
# Text: (§1) The anti-coagulant activity which depends from the concentration of laminarin sulphate has been determined in comparison with that of heparin in the classical coagulation tests APTT or “Aktivierte partielle Thromboplastin-Zeit”, of the duration of the prothrombin, by way of the test so called “HEPTEST” and the duration of the thrombin. The APTT reflects an interaction with the intrinsic system of the coagulation while the duration of prothrombin reflects an interaction with the extrinsic coagulation; the so called “HEPTEST” is a classical test for the measurement of the inhibiting activity of heparin with respect to the Xa factor and the duration of thrombin corresponds to the last step of the coagulation, i.e. the formation of fibrins induced by the thrombin. In contradiction with that of heparin, the activity of laminarin sulphate in the so called “HEPTEST” is more than 20 times weaker. […] The specific activity (IU/mg) in the APTT represents 30% of the activity of heparin and in the case of the duration of thrombin it represents 60%. In order to totally prevent the coagulation it is convenient to use in the case of APTT a concentration 4 times higher and in the case of the duration of thrombin a concentration 20 times higher.
# [2] = test system: complement system (obtained from human serum), classical route; test: inhibition of the activation of the complement by the classical route (hemolysis of sheep antibody-sensitized erythrocytes); format: biochemical
# Text: (§2) Test 1: Measuring of the Anti-Complementary Activity
# (§3) The complement system plays a key role in the inflammatory processes induced by infections. The substances which inhibit in vitro the activation of the complement are potentially in vivo anti-inflammatory products.
# (§4) The activation of the complement can be carried out by the classical route in which the system antigen-antibody plays a role, or by the so-called alternative route. The anti-complementary activity of laminarin sulphate has been examined in vitro in comparison to that of the above heparin of low molecular weight used as reference (HBPM).
# (§5) The evaluation of the anti-complementary reactivity is carried out by photometric or colorimetric measurement of the hemoglobin freed by lysis of the erythrocytes. The erythrocytes used are sheep antibody-sensitized erythrocytes for the classical route and rabbit erythrocytes for the altern route.
# (§6) In a first step, the product to be tested and the complement system (obtained from human serum) are put into contact with one another and if necessary incubated during 30 minutes and then, in a second step, they are put into contact with the erythrocytes during 45 minutes.
# (§7) The more the test product inhibits the complement, the more the lysis of the erythrocytes is weak and the less the amount of freed hemoglobin is important.
# (§8) The anti-complementary activity is expressed in IC (50) (IC meaning “inhibiting concentration”) which designates the concentration expressed in […] of test substance per ml of mixture of the test substance and the serum (μg/ml), concentration which is necessary to inhibit by 50% the activity of the complement.
# P-selectin = biological target: T1, P-selectin (Homo sapiens, UniProt P16109); test: cellular adhesion on immobilized P-selectin under static conditions (U 937 cells); format: cell-based
# T1 sequence (P16109 42-830): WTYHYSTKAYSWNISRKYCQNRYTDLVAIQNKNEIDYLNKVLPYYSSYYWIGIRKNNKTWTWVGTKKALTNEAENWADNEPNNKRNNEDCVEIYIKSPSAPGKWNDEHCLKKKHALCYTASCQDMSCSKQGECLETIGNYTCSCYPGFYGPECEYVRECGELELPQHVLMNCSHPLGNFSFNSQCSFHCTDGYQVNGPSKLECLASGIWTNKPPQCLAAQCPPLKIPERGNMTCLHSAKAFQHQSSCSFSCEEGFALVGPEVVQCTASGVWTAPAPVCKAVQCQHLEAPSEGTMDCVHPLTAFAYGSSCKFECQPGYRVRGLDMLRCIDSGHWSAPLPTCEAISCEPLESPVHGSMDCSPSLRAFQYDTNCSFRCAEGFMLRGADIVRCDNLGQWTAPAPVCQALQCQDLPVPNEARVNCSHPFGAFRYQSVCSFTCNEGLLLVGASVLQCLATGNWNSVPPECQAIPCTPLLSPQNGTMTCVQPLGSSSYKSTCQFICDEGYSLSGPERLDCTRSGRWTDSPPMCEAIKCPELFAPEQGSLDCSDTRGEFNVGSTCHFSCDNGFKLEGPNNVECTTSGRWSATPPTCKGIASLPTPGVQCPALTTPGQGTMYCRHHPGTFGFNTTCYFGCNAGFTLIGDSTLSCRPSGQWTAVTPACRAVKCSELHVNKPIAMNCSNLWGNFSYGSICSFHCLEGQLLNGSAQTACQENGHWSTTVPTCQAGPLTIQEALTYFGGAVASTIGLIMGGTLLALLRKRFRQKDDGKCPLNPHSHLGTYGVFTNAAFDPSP
# Text: (§9) Test 3: Influence on the Adhesion of the Cells Induced by Selectin
# (§10) Consequently, the effect of laminarin sulphate has been examined through the direct quantification of the cells bond to the selectins immobilized on microplates.
# (§11) The influence of the laminarin sulphate on the adhesion of the cells due to the selectins has been studied first under static conditions as schematically shown on FIG. 3a (E-selectins or P-selectins) and 3b (L-selectins). The selectin has been deposited on a microtitration plate; in that respect and in the case of L-selectin the human chimera Fc of L-selectin has been used. Then, the plate was incubated with the test substance and with cells carrying the ligands of the corresponding selecting, that is to say in the case of L-selectin the human cellular line LS 180 of the adenocarcinoma of the colon and in the case of the selectins P and E the human lymphomic cellular line U 937.
# (§12) The number of cells bond to the microtitration plate after washing and subsequent lysis of these cells was determined and their lactate dehydrogenase content was determined by way of an enzymatic reaction.
# thrombin [3] = test: duration of the thrombin coagulation test; format: biochemical
# Text: as §1
# [4] = test system: polymorphnuclear neutrophiles (PMN); test: chemotaxy of granulocytes, Boyden Chamber test with C5a (human serum activated with Zymosan); format: cell-based
# Text: Test 2: Examination of the Influence on the Chemiotaxy of the Granulocytes
# The polymorphnuclear neutrophiles or PMN are cells which are characteristic of the infiltrate of the acute inflammation. The movement or the migration of neutrophiles from inside of the blood vessels in direction of the tissues is provoked by molecules which are called chemotaxins. Two chemotaxins are particularly important in the case of the polynuclear neutrophiles, i.e. the fragment C5a of the complement and the interleukin 8 (IL-8). The movement of the neutrophiles can be aleatory (which means that a so called chemokinesis occurs) or can be oriented along the length of a gradient of chemotaxins.
# Consequently, the ability of laminarin sulphate to inhibit the chemotaxy of […] was examined; this study has been carried out in vitro by way of the test called Test of the Boyden Chamber (a variant of the Boyden Chamber having 96 holes was used) the fragment C5a in the form of human serum activated with Zymosan having been used as chemiotaxin. As shown on FIG. 2, the Boyden Chamber comprises 2 compartments respectively 1 and 2 which are separated by a membrane 3 consisting of polycarbonate (dimension of the pores 3 μm). The pores of the said membrane authorize the active passing of the cells but not their passive diffusion.
# The polymorphnuclear neutrophiles PMN are placed in the higher compartment 2 together with the substance to be tested at various doses. The C5a is placed in the lower compartment.
# The measurement of the inhibition of the chemotaxy is carried out by numbering the cells which have been attracted in the lower compartment. For the numbering of the cells, they are lysed with Triton X, and the free peroxidase is then quantified by adding 2,2-azino-di-[3-ethylbenzo-thiazoline] sulfonate or ABTS marketed by Boehringer Mannheim and by measuring at 405 nm the extinction of the colored product which has been formed.
# factor Xa = test: specific anti-factor Xa test using chromogeneous substrates; format: biochemical
# Text: (§13) The effect in the case of the duration of thrombin can be considered as being due to an inhibition of thrombin dependent from the cofactor II heparin. […] For that reason and due to the better effect in the systems of anti-inflammatory tests, the profile “utility/risk” moves in the case of laminarin sulphate unequivocally in the sense of an anti-inflammatory effect. It follows that the anti-inflammatory properties of laminarin sulphate can be advantageously used without the apprehension of undesirable side effects on coagulation.
# [5] = test system: complement system (obtained from human serum), alternative route; test: inhibition of the activation of the complement by the alternative route (hemolysis of rabbit erythrocytes); format: biochemical; conditions: for IC (50), inhibition of the complement by the alternative route: laminarin sulphate without incubation
# Text: as §2, §3, §4, §5, §6, §7, §8
# [6] = test system: intrinsic system of the coagulation; test: coagulation test APTT; format: biochemical
# Text: as §1
# thrombin [7] = test: specific anti-thrombin test using chromogeneous substrates; format: biochemical
# Text: as §13
# [8] = test system: human chimera Fc of L-selectin; test: cellular adhesion on immobilized L-selectin under static conditions (LS 180 cells); format: cell-based
# Text: as §9, §10, §11, §12
# [9] = test system: MDA-MB-231, MCF, U937, LS180 cellular lines; test: cytotoxicity tests (5 days proliferation with crystal violet or MTT, acute LDH kit); format: cell-based, human; conditions: highest tested concentration, 100 μg/ml
# Method: In order to test cytoxicity, the following cellular lines were used: MDA-MB-231 (human mammary carcinoma); MCF (human mammary carcinoma); U937—(human lymphoma); and, LS180 (human adenocarcinoma).
# The test used is a 5 days proliferation test and the determination of the number of living cells was carried out by coloration with crystallin violet or crystallin purple. A 5 day proliferation test with determination of the number of living cells using the test MTT has also been carried out. Finally the acute cytotoxicity has been determined using a kit marketed by the company Boehringer Mannheim under the title “Cytotoxicity detection kit” (LDH).
# Xa factor = test: HEPTEST coagulation test; format: biochemical; conditions: relative to heparin
# Text: as §1
# Chain of human chimera Fc of L-selectin (P14151 39-318 limits assumed, change not shown): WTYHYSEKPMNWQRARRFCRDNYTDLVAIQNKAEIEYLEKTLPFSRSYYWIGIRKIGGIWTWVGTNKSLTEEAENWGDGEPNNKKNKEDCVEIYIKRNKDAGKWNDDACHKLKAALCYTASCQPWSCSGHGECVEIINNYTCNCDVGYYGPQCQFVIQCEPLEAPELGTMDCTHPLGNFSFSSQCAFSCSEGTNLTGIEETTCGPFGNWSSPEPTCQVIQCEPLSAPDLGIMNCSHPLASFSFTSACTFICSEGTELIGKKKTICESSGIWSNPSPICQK
molecule,measurement,setting,value
"COc1ccc2c(c1)c(CC(=O)O)c(C)n2C(=O)c1ccc(Cl)cc1 [indomethacin, reference compound]",equipotent amount per ear for inhibition of inflammation,[1],72 μg per ear
laminarin sulphate,anti-coagulant effect on the duration of prothrombin,extrinsic coagulation,no pronounced anti-coagulant effect
same,"IC (50), inhibition of the activation of the complement by the classical way",[2],0.54 ± 0.06 µg/mL
same,times more active on the inhibition of the complement than heparin,[2],80 times
same,Inhibition expressed in % of the cellular adhesion on P-selectin,P-selectin; 5 μg/ml,50 ± 2%
same,Inhibition expressed in % of the cellular adhesion on P-selectin,P-selectin; 25 μg/ml,63 ± 3%
same,"concentration to totally prevent the coagulation, times higher than heparin",thrombin [3]; duration of thrombin,20 times
same,specific activity (IU/mg) in the duration of thrombin as % of the activity of heparin,thrombin [3]; relative to heparin,60%
same,inhibition of the cellular migration,[4]; 1.67 μg/ml,50%±6%
same,anti-factor Xa activity dependent from anti-thrombin,factor Xa,does not present a significant anti-factor Xa activity
same,times more active on the inhibition of the complement than heparin,[5],10 times
same,prolongation of the activity of the complement,[5]; dose of 2.4 μg/ml,50%
same,prolongation of the activity of the complement,[5]; laminarin sulphate at low concentrations,more than 100%
same,"IC (50), inhibition of the complement by the alternative route",[5],43 µg/mL
same,times more active than indomethacin from the molar point of view,[1]; 25 nMol laminarin sulphate vs 200 nMol indomethacin,nine
same,inhibiting activity when applied after croton oil instead of simultaneously,"[1]; control experiment, applied after croton oil",no difference
same,efficiency compared with dexamethasone,[1]; equimolar concentration of 0.12 mmol/ear,more efficient than dexamethasone
same,equipotent amount per ear for inhibition of inflammation,[1],250 μg per ear
same,"concentration to totally prevent the coagulation, times higher than heparin",[6]; APTT,4 times
same,specific activity (IU/mg) in the APTT as % of the activity of heparin,[6]; relative to heparin,30%
same,anti-thrombin activity,thrombin [7],nor an anti-thrombin activity
same,Inhibition expressed in % of the cellular adhesion on L-selectin,[8]; 5 μg/ml,33 ± 1%
same,Inhibition expressed in % of the cellular adhesion on L-selectin,[8]; 25 μg/ml,89 ± 10%
same,cytotoxic effect,[9],no cytotoxic effect was noticed
same,"activity in the HEPTEST, times weaker than heparin",Xa factor,more than 20 times
heparin [reference compound],"IC (50), inhibition of the activation of the complement by the classical way",[2],43.7 ± 1.9 µg/mL
same,Inhibition expressed in % of the cellular adhesion on P-selectin,P-selectin; 5 μg/ml,12 ± 5%
same,Inhibition expressed in % of the cellular adhesion on P-selectin,P-selectin; 25 μg/ml,30 ± 4%
same,inhibition of the cellular migration,[4]; 1.67 μg/ml,not inhibited
same,inhibition of the cellular migration,[4]; 4.2 μg/ml,10%±5%
same,"IC (50), inhibition of the complement by the alternative route",[5],464 µg/mL
same,Inhibition expressed in % of the cellular adhesion on L-selectin,[8]; 5 μg/ml,15 ± 5%
same,Inhibition expressed in % of the cellular adhesion on L-selectin,[8]; 25 μg/ml,32 ± 3%
